# Laboratory results from US10927078B2, “Modulators of indoleamine 2,3-dioxygenase” (GLAXOSMITHKLINE INTELLECTUAL PROPERTY DEVELOPMENT LIMITED, priority 2017, dated 2021).
# Target: indoleamine 2, 3-dioxygenase (IDO1) (Homo sapiens, UniProt P14902)
# Test: PBMC IDO1 assay (kynurenine via mass spectrometry)
# Format: cell-based
# Conditions: not given
# Protocol: Compounds of the present invention were tested via high-throughput cellular assays utilizing detection of kynurenine via mass spectrometry and cytotoxicity as end-points. For the mass spectrometry and cytotoxicity assays, human peripheral blood mononuclear cells (PBMC) (PB003F; AllCells®, Alameda, Calif.) were stimulated with human interferon-γ (IFN-γ) (Sigma-Aldrich Corporation, St. Louis, Mo.) and lipopolysaccharide from Salmonella minnesota (LPS) (Invivogen, San Diego, Calif.) to induce the expression of indoleamine 2, 3-dioxygenase (IDO1). Compounds with IDO1 inhibitory properties decreased the amount of kynurenine produced by the cells via the tryptophan catabolic pathway. Cellular toxicity due to the effect of compound treatment was measured using CellTiter-Glo® reagent (CTG) (Promega Corporation, Madison, Wis.), which is based on luminescent detection of ATP, an indicator of metabolically active cells.
# In preparation for the assays, test compounds were serially diluted 3-fold in DMSO from a typical top concentration of 5 mM and plated at 0.5 μL in 384-well, polystyrene, clear bottom, tissue culture treated plates with lids (Greiner Bio-One, Kremsmünster, Austria) to generate 11-point dose response curves. Low control wells (0% kynurenine or 100% cytotoxicity) contained either 0.5 μL of DMSO in the presence of unstimulated (-IFN-γ/-LPS) PBMCs for the mass spectrometry assay or 0.5 μL of DMSO in the absence of cells for the cytotoxicity assay, and high control wells (100% kynurenine or 0% cytotoxicity) contained 0.5 μL of DMSO in the presence of stimulated (+IFN-γ/+LPS) PBMCs for both the mass spectrometry and cytotoxicity assays.
# Frozen stocks of PBMCs were washed and recovered in RPMI 1640 medium (Thermo Fisher Scientific, Inc., Waltham, Mass.) supplemented with 10% v/v heat-inactivated fetal bovine serum (FBS) (Thermo Fisher Scientific, Inc., Waltham, Mass.), and 1× penicillin-streptomycin antibiotic solution (Thermo Fisher Scientific, Inc., Waltham, Mass.). The cells were diluted to 1,000,000 cells/mL in the supplemented RPMI 1640 medium. 50 μL of either the cell suspension, for the mass spectrometry assay, or medium alone, for the cytotoxicity assay, were added to the low control wells, on the previously prepared 384-well compound plates, resulting in 50,000 cells/well or 0 cells/well respectively. IFN-γ and LPS were added to the remaining cell suspension at final concentrations of 100 ng/ml and 50 ng/ml respectively, and 50 μL of the stimulated cells were added to all remaining wells on the 384-well compound plates. The plates, with lids, were then placed in a 37° C., 5% CO2 humidified incubator for 2 days.
# Following incubation, the 384-well plates were removed from the incubator and allowed to equilibrate to room temperature for 30 minutes. For the cytotoxicity assay, CellTiter-Glo® was prepared according to the manufacturer's instructions, and 40 μL were added to each plate well. After a twenty minute incubation at room temperature, luminescence was read on an EnVision® Multilabel Reader (PerkinElmer Inc., Waltham, Mass.). For the mass spectrometry assay, 10 μL of supernatant from each well of the compound-treated plates were added to 40 μL of acetonitrile, containing 10 μM of an internal standard for normalization, in 384-well, polypropylene, V-bottom plates (Greiner Bio-One, Kremsmünster, Austria) to extract the organic analytes. Following centrifugation at 2000 rpm for 10 minutes, 10 μL from each well of the acetonitrile extraction plates were added to 90 μL of sterile, distilled H2O in 384-well, polypropylene, V-bottom plates for analysis of kynurenine and the internal standard on the RapidFire 300 (Agilent Technologies, Santa Clara, Calif.) and 4000 QTRAP MS (SCIEX, Framingham, Mass.). MS data were integrated using Agilent Technologies' RapidFire Integrator software, and data were normalized for analysis as a ratio of kynurenine to the internal standard. […]
# indoleamine 2, 3-dioxygenase (IDO1), sequence (P14902 whole entry): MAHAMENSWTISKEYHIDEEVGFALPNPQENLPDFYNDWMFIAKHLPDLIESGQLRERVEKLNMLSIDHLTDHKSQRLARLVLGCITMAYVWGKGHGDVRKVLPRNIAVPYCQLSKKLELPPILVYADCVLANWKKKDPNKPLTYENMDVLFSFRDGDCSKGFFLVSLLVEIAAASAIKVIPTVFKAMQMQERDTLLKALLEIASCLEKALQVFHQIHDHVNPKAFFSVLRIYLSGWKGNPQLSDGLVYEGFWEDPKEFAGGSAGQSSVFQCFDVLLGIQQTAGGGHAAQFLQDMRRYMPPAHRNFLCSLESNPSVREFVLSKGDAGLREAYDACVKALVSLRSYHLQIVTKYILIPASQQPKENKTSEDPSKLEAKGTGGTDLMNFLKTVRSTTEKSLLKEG
row,Compound,IC50
1,"Cc1ncccc1OC(=O)N1CCC(C(CC(C)C)NC(=O)c2ccc(F)cc2)CC1 (centres unmarked) [Example 18, 2-methylpyridin-3-yl 4-{1-[(4-fluorophenyl)formamido]-3-methylbutyl}piperidine-1-carboxylate]",3.16 nM
2,"CC(C)CC(NC(=O)c1ccc(Cl)cc1)C1CCN(C(=O)Oc2cccnc2C(C)C)CC1 (centres unmarked) [Example 34, 2-(propan-2-yl)pyridin-3-yl 4-{1-[(4-chlorophenyl)formamido]-3-methylbutyl}piperidine-1-carboxylate]",6.31 nM
3,"COCCC[C@@H](NC(=O)c1ccc(F)cc1)C1CCN(C(=O)Oc2cccnc2F)CC1 [Example 76, 2-fluoropyridin-3-yl 4-[(1R)-1-[(4-fluorophenyl)formamido]-4-methoxybutyl]piperidine-1-carboxylate]",158 nM
4,"COc1ncccc1OC(=O)N1CCC(C(CC(C)C)NC(=O)c2ccc(Cl)cc2)CC1 (centres unmarked) [Example 10, 2-methoxypyridin-3-yl 4-{1-[(4-chlorophenyl)formamido]-3-methylbutyl}piperidine-1-carboxylate]",2.51 nM
5,"COc1ncccc1OC(=O)N1CCC([C@@H](CC(C)C)NC(=O)c2ccc(F)cc2)CC1 [Example 105, (R)-2-methoxypyridin-3-yl 4-(1-(4-fluorobenzamido)-3-methylbutyl)piperidine-1-carboxylate]",1.26 nM
6,"O=C(N[C@H](CCCO)C1CCN(C(=O)Oc2cccnc2F)CC1)c1ccc(F)cc1 [Example 97, 2-fluoropyridin-3-yl 4-[(1R)-1-[(4-fluorophenyl)formamido]-4-hydroxybutyl]piperidine-1-carboxylate]",1260 nM

# Same assay, conditions: human PBMC stimulated with IFN-γ and LPS, 2 days, kynurenine by mass spectrometry; recorded as pIC50; read-out: PBMC PXC50_ (converted)
row,Compound,IC50
1,"CC(C)CC(NC(=O)c1ccc(F)cc1)C1CCN(C(=O)Oc2cccc(F)c2C#N)CC1 (centres unmarked) [Example 12, 2-cyano-3-fluorophenyl 4-{1-[(4-fluorophenyl)formamido]-3-methylbutyl}piperidine-1-carboxylate]",2.51 nM
2,"CC(C)CC(NC(=O)c1ccc(Cl)cc1)C1CCN(C(=O)Oc2ccccc2)CC1 (centres unmarked) [Example 26, phenyl 4-{1-[(4-chlorophenyl)formamido]-3-methylbutyl}piperidine-1-carboxylate]",5.01 nM
3,"CC(C)C[C@@H](NC(=O)c1ccc(F)cc1)C1CCN(C(=O)Oc2ccccc2)CC1 [Example 27, phenyl 4-[(1R)-1-[(4-fluorophenyl)formamido]-3-methylbutyl]piperidine-1-carboxylate]",5.01 nM
4,"Cc1c(F)cccc1OC(=O)N1CCC([C@H](NC(=O)c2ccc(Cl)s2)C2CC2)CC1 [Example 19, 3-fluoro-2-methylphenyl 4-[(R)-[(5-chlorothiophen-2-yl)formamido](cyclopropyl)methyl]piperidine-1-carboxylate]",3.16 nM
5,"Cc1cccc(OC(=O)N2CCC(C(CC(C)C)NC(=O)c3ccc(F)cc3)CC2)c1F (centres unmarked) [Example 28, 2-fluoro-3-methylphenyl 4-{1-[(4-fluorophenyl)formamido]-3-methylbutyl}piperidine-1-carboxylate]",5.01 nM
6,"Cc1ncnc(C)c1OC(=O)N1CCC(C(CC(C)C)NC(=O)c2ccc(Cl)cc2)CC1 (centres unmarked) [Example 15, 4,6-dimethylpyrimidin-5-yl 4-{1-[(4-chlorophenyl)formamido]-3-methylbutyl}piperidine-1-carboxylate]",2.51 nM
7,"Cc1cnccc1OC(=O)N1CCC(C(CC(C)C)NC(=O)c2ccc(Cl)cc2)CC1 (centres unmarked) [Example 29, 3-methylpyridin-4-yl 4-{1-[(4-chlorophenyl)formamido]-3-methylbutyl}piperidine-1-carboxylate]",5.01 nM
8,"C[C@@H](NC(=O)c1ccc(Cl)s1)C1CCN(C(=O)Oc2ccccc2)CC1 [Example 38, phenyl 4-[(1R)-1-[(5-chlorothiophen-2-yl)formamido]ethyl]piperidine-1-carboxylate]",7.94 nM

# Next, values leading:
row,IC50,Compound
1,251 nM,"C#Cc1ccc(C(=O)NC(c2ccccc2)C2CCN(C(=O)OC(C)(C)C)CC2)cc1 (centres unmarked) [Example 78, tert-butyl 4-{[(4-ethynylphenyl)formamido](phenyl)methyl}piperidine-1-carboxylate]"
2,3160 nM,"Cc1c(OC(=O)N2CCC([C@@H](C)NC(=O)c3ccc(Cl)s3)CC2)ccnc1F [Example 101, 2-fluoro-3-methylpyridin-4-yl 4-[(1R)-1-[(5-chlorothiophen-2-yl)formamido]ethyl]piperidine-1-carboxylate]"
3,7.94 nM,"CC(C)CC(NC(=O)c1ccc(F)cc1)C1CCN(C(=O)Oc2cccc(C#N)c2F)CC1 (centres unmarked) [Example 41, 3-cyano-2-fluorophenyl 4-{1-[(4-fluorophenyl)formamido]-3-methylbutyl}piperidine-1-carboxylate]"
4,1000 nM,"O=C(NC(c1ccncc1)C1CCN(C(=O)Oc2ccncc2)CC1)c1ccc(F)cc1 (centres unmarked) [Example 94, pyridin-4-yl 4-{[(4-fluorophenyl)formamido](pyridin-4-yl)methyl}piperidine-1-carboxylate]"
5,20 nM,"CC(C)CC(NC(=O)c1ccc(F)cc1)C1CCN(C(=O)Oc2ccnc(F)c2)CC1 (centres unmarked) [Example 55, 2-fluoropyridin-4-yl 4-{1-[(4-fluorophenyl)formamido]-3-methylbutyl}piperidine-1-carboxylate]"
6,10000 nM,"NC(=O)c1ccc(C(=O)NC(c2ccccc2)C2CCN(C(=O)Oc3ccccc3)CC2)nc1 (centres unmarked) [Example 103, phenyl 4-{[(5-carbamoylpyridin-2-yl)formamido](phenyl)methyl}piperidine-1-carboxylate]"
7,63.1 nM,"CC(C)CC(NC(=O)c1ccc(F)cc1)C1CCN(C(=O)OCc2ccccc2)CC1 (centres unmarked) [Example 62, benzyl 4-{1-[(4-fluorophenyl)formamido]-3-methylbutyl}piperidine-1-carboxylate]"
8,15.8 nM,"CC(NC(=O)c1ccc(Cl)s1)C1CCN(C(=O)Oc2ccccc2)CC1 (centres unmarked) [Example 52, phenyl 4-{1-[(5-chlorothiophen-2-yl)formamido]ethyl}piperidine-1-carboxylate]"
9,631 nM,"Cc1c(F)cccc1OC(=O)N1CCC([C@H](C)NC(=O)c2ccc(Cl)s2)CC1 [Example 92, 3-fluoro-2-methylphenyl 4-[(1S)-1-[(5-chlorothiophen-2-yl)formamido]ethyl]piperidine-1-carboxylate]"
10,631 nM,"N#Cc1ccc(C(=O)NC(c2ccccc2)C2CCN(C(=O)Oc3ccccc3)CC2)nc1 (centres unmarked) [Example 89, phenyl 4-{[(5-cyanopyridin-2-yl)formamido](phenyl)methyl}piperidine-1-carboxylate]"
11,39.8 nM,"CC(C)C[C@H](NC(=O)c1ccc(Cl)s1)C1CCN(C(=O)Oc2ccccc2)CC1 [Example 58, phenyl 4-[(1S)-1-[(5-chlorothiophen-2-yl)formamido]-3-methylbutyl]piperidine-1-carboxylate]"
12,631 nM,"CC(C)(C)OC(=O)N1CCC(C(NC(=O)c2cccc3cc[nH]c23)c2ccccc2)CC1 (centres unmarked) [Example 85, tert-butyl 4-{[(1H-indol-7-yl)formamido](phenyl)methyl}piperidine-1-carboxylate]"
13,12.6 nM,"CC(C)CC(NC(=O)c1cccc2cn[nH]c12)C1CCN(C(=O)Oc2ccccc2)CC1 (centres unmarked) [Example 110, phenyl 4-(1-(1H-indazole-7-carboxamido)-3-methylbutyl)piperidine-1-carboxylate]"
14,10 nM,"O=C(NC(C1CC1)C1CCN(C(=O)Oc2ccccc2)CC1)c1ccc(Cl)s1 (centres unmarked) [Example 46, phenyl 4-{[(5-chlorothiophen-2-yl)formamido](cyclopropyl)methyl}piperidine-1-carboxylate]"
15,631 nM,"O=C(NC(c1ccccc1)C1CCN(C(=O)Oc2ccccc2)CC1)c1ccc(C(F)(F)F)cn1 (centres unmarked) [Example 88, phenyl 4-[phenyl({[5-(trifluoromethyl)pyridin-2-yl]formamido})methyl]piperidine-1-carboxylate]"
